Assay results taken from patent US12122780B2, “Pyrimidinyl group-containing tricyclic compound serving as c-Met inhibitor” (JIANGSU AOSAIKANG PHARMACEUTICAL CO., LTD., priority 2019, dated 2024).
Counter-ions that a name gives are not always drawn.

Columns and labels:
[1] = system: human gastric cancer Hs746T xenograft tumor; assay: In vivo drug efficacy, human gastric cancer Hs746T xenograft tumor in nude mice; set-up: species or system BALB/c nude mice; settings: for TGI (tumor growth inhibition rate) / TRTV/CRTV (relative tumor proliferation rate T/C): after 20 days; for Tumor volume: n = 6
Experimental: BALB/c nude mice, female, 6-8 weeks old, weighing about 18-22 grams, animals were raised in SPF-class animal rooms in IVC (independent air supply system, constant temperature and humidity) cages (3 per cage). All cages, bedding and water were disinfected before use. All animals had free access to standard certified commercial laboratory diets. 0.2 mL (5×10^6 cells) of Hs746T cell suspension (with matrix gel, volume ratio 1:1) was subcutaneously inoculated on the right back of each mouse, and a total of 55 mice were inoculated. When the average tumor volume reached 160 mm^3, a random stratified grouping method was adopted according to the tumor volume and animal body weight to start grouping administration. The test compound was orally administered daily, the two doses of hydrochloride of compound 25 were 3 mg/kg and 6 mg/kg, respectively, and the dose of hydrochloride of compound 39 was 3 mg/kg. The tumor diameter was measured with vernier calipers twice a week. The calculation formula of tumor volume was: V=0.5a×b^2, a and b represented the long diameter and short diameter of the tumor, respectively. The anti-tumor efficacy of the compound was evaluated by TGI (%) or the relative tumor proliferation rate T/C (%). Relative tumor proliferation rate T/C (%)=TRTV/CRTV×100% (TRTV: average RTV in the treatment group; CRTV: average RTV in the negative control group). The relative tumor volume (RTV) was calculated according to the results of tumor measurement, the calculation formula was RTV=Vt/V0, wherein V0 was the tumor volume measured at the time of the grouping administration (i.e. D0), Vt was the tumor volume of the mice at a certain measurement, and TRTV and CRTV were taken on the same day. TGI (%) reflected the tumor growth inhibition rate. TGI (%)=[(1−(average tumor volume of a certain treatment group after administration-average tumor volume of the treatment group at the beginning of administration))/(average tumor volume of the solvent control group after the administration-average tumor volume of the solvent control group at the beginning of the administration)]×100%. Statistical analysis was performed based on the tumor volume (RTV) on the 20th day, and SPSS software was used for analysis.

[2] = system: human lung cancer EBC-1 xenograft tumor; assay: In vivo drug efficacy, human lung cancer EBC-1 xenograft tumor in nude mice; set-up: species or system BALB/c nude mice; settings: for Tumor volume: n = 6; for TGI (tumor growth inhibition rate) / TRTV/CRTV (relative tumor proliferation rate T/C): 25th day
Experimental: BALB/c nude mice, female, 6-8 weeks old, weighing about 18-20 grams, animals were raised in SPF-class animal rooms in IVC (independent air supply system, constant temperature and humidity) cages (3 per cage). All cages, bedding and water were disinfected before use. All animals had free access to standard certified commercial laboratory diets. A total of 36 mice purchased from Shanghai Lingchang Biotechnology Co., Ltd. were used for research. Each animal was inoculated with 0.1 mL (5×10^6 cells) of EBC-1 cells on the right back, when the average tumor volume reached 243 mm^3, the animals were randomly grouped and the administration was started. The test compound was orally administered daily, the dose of hydrochloride of compound 24 was 10 mg/kg, the two doses of hydrochloride of compound 25 were 10 mg/kg and 20 mg/kg, respectively, and the dose of hydrochloride of compound 29 was 10 mg/kg. The tumor diameter was measured with vernier calipers twice a week. The calculation formula of tumor volume was: V=0.5a×b^2, a and b represented the long diameter and short diameter of the tumor, respectively. The anti-tumor efficacy of the compound was evaluated by TGI (%) or the relative tumor proliferation rate T/C (%). Relative tumor proliferation rate T/C (%)=TRTV/CRTV×100% (TRTV: average RTV in the treatment group; CRTV: average RTV in the negative control group). The relative tumor volume (RTV) was calculated according to the results of tumor measurement, the calculation formula was RTV=Vt/V0, wherein V0 was the tumor volume measured at the time of the grouping administration (i.e. D0), Vt was the tumor volume at a certain measurement, and TRTV and CRTV were taken on the same day. TGI (%) reflected the tumor growth inhibition rate. TGI (%)=[(1−(average tumor volume of a certain treatment group after administration-average tumor volume of the treatment group at the beginning of administration))/(average tumor volume of the solvent control group after the administration-average tumor volume of the solvent control group at the beginning of the administration)]×100%. Statistical analysis was performed based on RTV data at the end of the experiment, and SPSS software was used for analysis.

[3] = system: Hs746T cells; assay: Hs746T cell proliferation experiment (CellTiter-Glo); format: cell-based; settings: Homo sapiens, 96 h, 4 days
Experimental: DMEM medium was purchased from Gibco, and fetal bovine serum was purchased from Hyclone. Hs746T cell line was purchased from ATCC. Envision multi-label analyzer (PerkinElmer).
Hs746T cells were seeded in a 384-well plate, 50 μL of cell suspension per well, which contained 1500 Hs746T cells. The cell plate was placed in a carbon dioxide incubator for overnight culture.
The compounds to be tested were 3-fold diluted into 9 concentrations with Tecan, double-duplicate well experiment was set, and the final compound concentrations added to the 384-well cell plate were 1000 nM to 0.15 nM. The cell plate was cultured in a carbon dioxide incubator for 4 days.
After 4 days, 25 μL of Promega CellTiter-Glo reagent was added to each well of this cell plate, and incubated at room temperature for 10 minutes to stabilize the luminescence signal. Readings were taken using a PerkinElmer Envision multi-label analyzer.
The action curves of the compounds were automatically fitted using Xlfit software and the values of IC50 were calculated, High control was the values of DMSO-treated wells and Low control was the values of cell-free medium wells.

[4] = 3 mg/kg oral daily, day 0, mean ± standard error
[5] = 3 mg/kg oral daily, day 2, mean ± standard error
[6] = 3 mg/kg oral daily, day 5, mean ± standard error
[7] = 3 mg/kg oral daily, day 9, mean ± standard error
[8] = 3 mg/kg oral daily, day 12, mean ± standard error
[9] = 3 mg/kg oral daily, day 16, mean ± standard error
[10] = 3 mg/kg oral daily, day 19, mean ± standard error
[11] = 3 mg/kg oral daily, day 20, mean ± standard error

CC(C)N1CCC(COc2cnc(-c3cccc(Cn4c(=O)ccn5c6cc(C#N)ccc6nc45)c3)nc2)CC1 [Hydrochloride of compound 25]
TGI (tumor growth inhibition rate) ([1]; 3 mg/kg oral daily): 96.6%
TRTV/CRTV (relative tumor proliferation rate T/C) ([1]; 3 mg/kg oral daily): 10.2%
Tumor volume [1, 4]: 160 ± 7 mm^3
Tumor volume [1, 5]: 179 ± 8 mm^3
Tumor volume [1, 6]: 173 ± 12 mm^3
Tumor volume [1, 7]: 151 ± 7 mm^3
Tumor volume [1, 8]: 144 ± 6 mm^3
Tumor volume [1, 9]: 139 ± 20 mm^3
Tumor volume [1, 10]: 221 ± 49 mm^3
Tumor volume [1, 11]: 234 ± 79 mm^3
Tumor volume ([1]; 3 mg/kg oral daily, day 20, mean ± standard error, listed as hydrochloride of compound 25): 234 mm^3
TGI (tumor growth inhibition rate) ([1]; 6 mg/kg oral daily): 106.7%
TRTV/CRTV (relative tumor proliferation rate T/C) ([1]; 6 mg/kg oral daily): 0.7%
Tumor volume ([1]; 6 mg/kg oral daily, day 0, mean ± standard error): 160 ± 7 mm^3
Tumor volume ([1]; 6 mg/kg oral daily, day 2, mean ± standard error): 146 ± 6 mm^3
Tumor volume ([1]; 6 mg/kg oral daily, day 5, mean ± standard error): 118 ± 6 mm^3
Tumor volume ([1]; 6 mg/kg oral daily, day 9, mean ± standard error): 89 ± 9 mm^3
Tumor volume ([1]; 6 mg/kg oral daily, day 12, mean ± standard error): 83 ± 9 mm^3
Tumor volume ([1]; 6 mg/kg oral daily, day 16, mean ± standard error): 55 ± 6 mm^3
Tumor volume ([1]; 6 mg/kg oral daily, day 19, mean ± standard error): 30 ± 4 mm^3
Tumor volume ([1]; 6 mg/kg oral daily, day 20, mean ± standard error): 17 ± 4 mm^3
Tumor volume ([1]; 6 mg/kg oral daily, day 20, mean ± standard error, listed as hydrochloride of compound 25): 17 mm^3
Tumor volume ([2]; 10 mg/kg oral daily (stopped after 15 days), day 18, mean ± standard error): 34 ± 4 mm^3
Tumor volume ([2]; 10 mg/kg oral daily (stopped after 15 days), day 21, mean ± standard error): 44 ± 6 mm^3
Tumor volume ([2]; 10 mg/kg oral daily (stopped after 15 days), day 25, mean ± standard error): 83 ± 11 mm^3
Tumor volume ([2]; 10 mg/kg oral daily (stopped after 15 days), day 25, mean ± standard error, listed as hydrochloride of compound 25): 83 mm^3
Tumor volume ([2]; 10 mg/kg oral daily (stopped after 15 days), day 27, mean ± standard error): 120 ± 25 mm^3
TGI (tumor growth inhibition rate) ([2]; 10 mg/kg oral daily): 108.9%
TRTV/CRTV (relative tumor proliferation rate T/C) ([2]; 10 mg/kg oral daily): 4.3%
Tumor volume ([2]; 10 mg/kg oral daily, day 0, mean ± standard error): 243 ± 21 mm^3
Tumor volume ([2]; 10 mg/kg oral daily, day 4, mean ± standard error): 247 ± 20 mm^3
Tumor volume ([2]; 10 mg/kg oral daily, day 7, mean ± standard error): 162 ± 13 mm^3
Tumor volume ([2]; 10 mg/kg oral daily, day 11, mean ± standard error): 67 ± 9 mm^3
Tumor volume ([2]; 10 mg/kg oral daily, day 14, mean ± standard error): 46 ± 5 mm^3
Tumor volume ([2]; 20 mg/kg oral daily (stopped after 15 days), day 18, mean ± standard error): 4 ± 0 mm^3
Tumor volume ([2]; 20 mg/kg oral daily (stopped after 15 days), day 21, mean ± standard error): 4 ± 0 mm^3
Tumor volume ([2]; 20 mg/kg oral daily (stopped after 15 days), day 25, mean ± standard error): 4 ± 0 mm^3
Tumor volume ([2]; 20 mg/kg oral daily (stopped after 15 days), day 25, mean ± standard error, listed as hydrochloride of compound 25): 4 mm^3
Tumor volume ([2]; 20 mg/kg oral daily (stopped after 15 days), day 27, mean ± standard error): 2 ± 1 mm^3
TGI (tumor growth inhibition rate) ([2]; 20 mg/kg oral daily): 113.4%
TRTV/CRTV (relative tumor proliferation rate T/C) ([2]; 20 mg/kg oral daily): 0.2%
Tumor volume ([2]; 20 mg/kg oral daily, day 0, mean ± standard error): 244 ± 22 mm^3
Tumor volume ([2]; 20 mg/kg oral daily, day 4, mean ± standard error): 174 ± 12 mm^3
Tumor volume ([2]; 20 mg/kg oral daily, day 7, mean ± standard error): 100 ± 8 mm^3
Tumor volume ([2]; 20 mg/kg oral daily, day 11, mean ± standard error): 32 ± 3 mm^3
Tumor volume ([2]; 20 mg/kg oral daily, day 14, mean ± standard error): 12 ± 3 mm^3
IC50 [3]: 2.2 nM

CC(C)(O)CN1CCC(COc2cnc(-c3cccc(Cn4c(=O)ccn5c6cc(C#N)ccc6nc45)c3)nc2)CC1 [Hydrochloride of compound 39]
TGI (tumor growth inhibition rate) ([1]; 3 mg/kg oral daily): 106.7%
TRTV/CRTV (relative tumor proliferation rate T/C) ([1]; 3 mg/kg oral daily): 0.7%
Tumor volume [1, 4]: 160 ± 6 mm^3
Tumor volume [1, 5]: 159 ± 8 mm^3
Tumor volume [1, 6]: 125 ± 4 mm^3
Tumor volume [1, 7]: 92 ± 3 mm^3
Tumor volume [1, 8]: 82 ± 5 mm^3
Tumor volume [1, 9]: 59 ± 7 mm^3
Tumor volume [1, 10]: 26 ± 4 mm^3
Tumor volume [1, 11]: 16 ± 3 mm^3
Tumor volume ([1]; 3 mg/kg oral daily, day 20, mean ± standard error, listed as hydrochloride of compound 39): 16 mm^3
IC50 [3]: 1.5 nM
